# From US20150307938A1, “METHOD TO IDENTIFY A NOVEL CLASS OF IMMUNOLOGIC ADJUVANTS” (Lancell, L.L.C., priority 2011, published 2015)
# Tests used:
# OVA = assay: Immune response to intradermal peptide (SIINFEKL) or protein (OVA) antigen, also alum-adsorbed OVA, with topical DBP; format: in vivo, mice
# Description: Topical DBP induced a 16-fold increase in the IgG1 Ab response to OVA adsorbed to alum and increased the IgG2c response 26-fold.
# [1] = Estimate of maximum absorbed dose from transdermal transport rate of DBP on human skin in vivo; conditions: from known transdermal transport rate on human skin in vivo
structure (smiles),measurement,setting,value
"CCCCOC(=O)c1ccccc1C(=O)OCCCC [DBP, dibutylphthalate]",T cell and antibody responses,OVA; DBP on skin of mice injected intradermally with adjuvant-free SIINFEKL or OVA,dramatic increase
same,survival of anaphylaxis,"OVA; high dose of alum-adsorbed OVA plus topical DBP, 60% succumbed without DBP",all of the mice survived
same,increase in the IgG1 Ab response to OVA adsorbed to alum,OVA; topical DBP,16 fold
same,increase in the IgG2c response to OVA adsorbed to alum,OVA; topical DBP,26 fold
same,"maximum absorbed dose from topical use as an adjuvant, vs LOEL in pregnant rats",[1],five logs lower than the LOEL
same,"maximum absorbed dose from topical use as an adjuvant, vs amount ingested daily",[1],no higher than the amount we ingest daily
